Test results reported in US20230002367A1, “BIFUNCTIONAL COMPOUNDS” (Hoffmann-La Roche Inc., priority 2019, published 2023).
Where two headings read alike, the source gives them in different places.

Molecular target: T1, SMARCA2 (Homo sapiens, UniProt P51531)
T1 construct: endogenous in cells
Assay: SMARCA2 HiBiT degradation assay (cellular)
Type: cell-based
Conditions: for DC50: read-out: HiBit A549 SMARCA2 IP

[1] = A549, Emax = amount of residual protein remaining in the cell following compound treatment
[2] = SMARCA2 HiBiT cells, luminescence readout, 11-point titration from 10 μM, 6 hours or 16 hours
[3] = A549, different HIBIT SMARCA2 clone (footnote a), residual protein remaining
[4] = different HIBIT SMARCA2 clone (footnote a)

T1 sequence (P51531 whole entry): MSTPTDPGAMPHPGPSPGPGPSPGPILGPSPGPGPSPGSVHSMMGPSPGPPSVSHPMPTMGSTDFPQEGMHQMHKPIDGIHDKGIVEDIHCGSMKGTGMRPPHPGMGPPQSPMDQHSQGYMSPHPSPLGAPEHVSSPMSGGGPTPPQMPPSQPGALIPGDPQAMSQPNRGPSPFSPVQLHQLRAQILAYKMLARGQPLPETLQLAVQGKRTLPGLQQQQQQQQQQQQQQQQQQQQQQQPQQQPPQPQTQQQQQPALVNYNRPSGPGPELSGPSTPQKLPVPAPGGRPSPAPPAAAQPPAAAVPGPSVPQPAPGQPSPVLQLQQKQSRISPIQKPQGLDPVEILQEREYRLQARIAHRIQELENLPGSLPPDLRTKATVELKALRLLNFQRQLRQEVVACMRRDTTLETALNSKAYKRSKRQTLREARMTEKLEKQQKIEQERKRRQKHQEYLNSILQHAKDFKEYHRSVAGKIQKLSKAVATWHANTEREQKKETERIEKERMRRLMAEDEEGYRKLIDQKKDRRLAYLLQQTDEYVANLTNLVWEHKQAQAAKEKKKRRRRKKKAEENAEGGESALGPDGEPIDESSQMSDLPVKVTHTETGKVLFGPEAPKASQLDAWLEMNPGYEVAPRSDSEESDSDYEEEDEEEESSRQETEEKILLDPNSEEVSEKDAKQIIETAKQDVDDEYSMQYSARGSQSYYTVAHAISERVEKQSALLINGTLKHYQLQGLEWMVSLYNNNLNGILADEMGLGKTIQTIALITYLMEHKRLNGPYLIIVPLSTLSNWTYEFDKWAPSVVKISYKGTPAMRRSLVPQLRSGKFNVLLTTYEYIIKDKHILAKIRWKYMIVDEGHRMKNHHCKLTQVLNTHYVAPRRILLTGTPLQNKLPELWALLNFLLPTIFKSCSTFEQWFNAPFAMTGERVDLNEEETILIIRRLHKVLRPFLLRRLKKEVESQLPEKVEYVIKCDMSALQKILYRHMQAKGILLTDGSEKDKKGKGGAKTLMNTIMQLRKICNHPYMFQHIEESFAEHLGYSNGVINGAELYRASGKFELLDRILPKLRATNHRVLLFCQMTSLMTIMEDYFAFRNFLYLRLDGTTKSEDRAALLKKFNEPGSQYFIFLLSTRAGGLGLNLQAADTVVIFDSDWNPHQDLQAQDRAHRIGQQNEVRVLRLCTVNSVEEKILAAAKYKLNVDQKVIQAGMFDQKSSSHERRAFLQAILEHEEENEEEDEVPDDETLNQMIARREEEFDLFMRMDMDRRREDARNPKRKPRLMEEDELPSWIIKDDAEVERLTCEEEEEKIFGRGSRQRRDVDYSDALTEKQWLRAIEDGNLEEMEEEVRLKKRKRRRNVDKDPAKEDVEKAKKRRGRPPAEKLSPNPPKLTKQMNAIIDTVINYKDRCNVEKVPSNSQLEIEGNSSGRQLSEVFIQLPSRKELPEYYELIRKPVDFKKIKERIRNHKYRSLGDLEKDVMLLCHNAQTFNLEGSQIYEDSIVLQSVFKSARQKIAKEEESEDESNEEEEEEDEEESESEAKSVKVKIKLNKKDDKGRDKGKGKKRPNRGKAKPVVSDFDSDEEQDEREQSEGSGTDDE

Compound	Emax [1]	DC50 [2]	Emax [3]	DC50 [4]
Cc1ncsc1-c1ccc(CNC(=O)[C@@H]2C[C@@H](O)CN2C(=O)[C@@H](NC(=O)CCCCCCCCC(=O)N(C)CCNC(=O)C2CN(c3cc(-c4ccccc4O)nnc3N)CCN2c2ccccc2)C(C)(C)C)cc1 (mixture of isomers) [Example 98, N′-[2-[[4-[3-amino-6-(2-hydroxyphenyl)pyridazin-4-yl]-1-phenyl-piperazine-2-carbonyl]amino]ethyl]-N′-methyl-N-[rac-(1S)-2,2-dimethyl-1-[rac-(2S,4R)-4-hydroxy-2-[[4-(4-methylthiazol-5-yl)phenyl]methylcarbamoyl]pyrrolidine-1-carbonyl]propyl]decanediamide]	28%	1.65 µM	–	–
Cc1ncsc1-c1ccc(CNC(=O)[C@@H]2C[C@@H](O)CN2C(=O)[C@@H](NC(=O)CCCCCCCCC(=O)N2CCN(c3ccc(N4CCCC(Oc5cc(-c6cc(F)ccc6O)nnc5N)C4)cc3)CC2)C(C)(C)C)cc1 (mixture of isomers) [Example 108, rac-(2S,4R)-4-hydroxy-N-[[4-(4-methylthiazol-5-yl)phenyl]methyl]-1-[rac-(2S)-2-[[10-[4-[4-[3-[3-amino-6-(5-fluoro-2-hydroxy-phenyl)pyridazin-4-yl]oxy-1-piperidyl]phenyl]piperazin-1-yl]-10-oxo-decanoyl]amino]-3,3-dimethyl-butanoyl]pyrrolidine-2-carboxamide]	–	–	7.9%	0.068 µM
Cc1ncsc1-c1ccc(CNC(=O)[C@@H]2C[C@@H](O)CN2C(=O)[C@@H](NC(=O)CCCCCC(=O)N2CCN(c3ccc(N4CCCC(Oc5cc(-c6cc(F)ccc6O)nnc5N)C4)cc3)CC2)C(C)(C)C)cc1 (mixture of isomers) [Example 109, rac-(2S,4R)-4-hydroxy-N-[[4-(4-methylthiazol-5-yl)phenyl]methyl]-1-[rac-(2S)-2-[[7-[4-[4-[3-[3-amino-6-(5-fluoro-2-hydroxy-phenyl)pyridazin-4-yl]oxy-1-piperidyl]phenyl]piperazin-1-yl]-7-oxo-heptanoyl]amino]-3,3-dimethyl-butanoyl]pyrrolidine-2-carboxamide]	–	–	23%	0.285 µM
Cc1ncsc1-c1ccc(CNC(=O)[C@@H]2C[C@@H](O)CN2C(=O)C(NC(=O)CCCCCCC(=O)N2CCC3(CC2)CCN(c2cc(-c4ccccc4O)nnc2N)CC3)C(C)(C)C)cc1 (stereo in doubt) [Example 6, (2S,4R)-1-[(2R)-2-[[8-[9-[3-amino-6-(2-hydroxyphenyl)pyridazin-4-yl]-3,9-diazaspiro[5.5]undecan-3-yl]-8-oxo-octanoyl]amino]-3,3-dimethyl-butanoyl]-4-hydroxy-N-[[4-(4-methylthiazol-5-yl)phenyl]methyl]pyrrolidine-2-carboxamide]	54%	2.91 µM	–	–
Cc1ncsc1-c1ccc([C@@H](C)NC(=O)[C@H]2C[C@H](O)CN2C(=O)[C@H](NC(=O)CCOCCC(=O)N2CCN(c3ccc(N4CCCC(Oc5cc(-c6ccccc6O)nnc5N)C4)cc3)CC2)C(C)(C)C)cc1 (stereo in doubt) [Example 31, (2R,4S)-1-((2R)-2-(3-(3-(4-(4-(3-((3-amino-6-(2-hydroxyphenyl)pyridazin-4-yl)oxy)piperidin-1-yl)phenyl)piperazin-1-yl)-3-oxopropoxy)propanamido)-3,3-dimethylbutanoyl)-4-hydroxy-N-((R)-1-(4-(4-methylthiazol-5-yl)phenyl)ethyl)pyrrolidine-2-carboxamide]	30%	1.92 µM	–	–
Cc1ncsc1-c1ccc(CNC(=O)[C@@H]2C[C@@H](O)CN2C(=O)[C@@H](NC(=O)CCCCCCCCC(=O)N2CCN(c3cc(-c4ccccc4O)nnc3N)CC2)C(C)(C)C)cc1 [Example 1, (2S,4R)-1-[(2S)-2-[[10-[4-[3-amino-6-(2-hydroxyphenyl)pyridazin-4-yl]piperazin-1-yl]-10-oxo-decanoyl]amino]-3,3-dimethyl-butanoyl]-4-hydroxy-N-[[4-(4-methylthiazol-5-yl)phenyl]methyl]pyrrolidine-2-carboxamide]	52%	2.78 µM	–	–
Cc1ncsc1-c1ccc(CNC(=O)[C@@H]2C[C@@H](O)CN2C(=O)[C@@H](NC(=O)CCCCCCCC(=O)N2CCN(CCOc3cccc(N4C5CCC4CN(c4cc(-c6ccccc6O)nnc4N)C5)c3)CC2)C(C)(C)C)cc1 [Example 2, (2S,4R)-1-[(2S)-2-[[9-[4-[2-[3-[3-[3-amino-6-(2-hydroxyphenyl)pyridazin-4-yl]-3,8-diazabicyclo[3.2.1]octan-8-yl]phenoxy]ethyl]piperazin-1-yl]-9-oxo-nonanoyl]amino]-3,3-dimethyl-butanoyl]-4-hydroxy-N-[[4-(4-methylthiazol-5-yl)phenyl]methyl]pyrrolidine-2-carboxamide]	38%	0.478 µM	–	–
Cc1ncsc1-c1ccc(CNC(=O)[C@@H]2C[C@@H](O)CN2C(=O)[C@@H](NC(=O)CCCCCCCC(=O)N2CCN(Cc3cccc(N4C5CCC4CN(c4cc(-c6ccccc6O)nnc4N)C5)c3)CC2)C(C)(C)C)cc1 [Example 3, (2S,4R)-1-[(2S)-2-[[9-[4-[[3-[3-[3-amino-6-(2-hydroxyphenyl)pyridazin-4-yl]-3,8-diazabicyclo[3.2.1]octan-8-yl]phenyl]methyl]piperazin-1-yl]-9-oxo-nonanoyl]amino]-3,3-dimethyl-butanoyl]-4-hydroxy-N-[[4-(4-methylthiazol-5-yl)phenyl]methyl]pyrrolidine-2-carboxamide]	51%	0.479 µM	–	–
Cc1ncsc1-c1ccc(CNC(=O)[C@@H]2C[C@@H](O)CN2C(=O)[C@@H](NC(=O)CCCCCCCCC(=O)N2CCN(c3cc(-c4ccccc4O)nnc3N)CC2C)C(C)(C)C)cc1 (stereo partly drawn) [Example 4, (2S,4R)-1-[(2S)-2-[[10-[4-[3-amino-6-(2-hydroxyphenyl)pyridazin-4-yl]-2-methyl-piperazin-1-yl]-10-oxo-decanoyl]amino]-3,3-dimethyl-butanoyl]-4-hydroxy-N-[[4-(4-methylthiazol-5-yl)phenyl]methyl]pyrrolidine-2-carboxamide]	36%	2.93 µM	–	–
Cc1ncsc1-c1ccc(CNC(=O)[C@@H]2C[C@@H](O)CN2C(=O)[C@@H](NC(=O)CCCCCCCCC(=O)N2C3CCC2CN(c2cc(-c4ccccc4O)nnc2N)C3)C(C)(C)C)cc1 [Example 5, (2S,4R)-1-[(2S)-2-[[10-[3-[3-amino-6-(2-hydroxyphenyl)pyridazin-4-yl]-3,8-diazabicyclo[3.2.1]octan-8-yl]-10-oxo-decanoyl]amino]-3,3-dimethyl-butanoyl]-4-hydroxy-N-[[4-(4-methylthiazol-5-yl)phenyl]methyl]pyrrolidine-2-carboxamide]	31%	2.51 µM	–	–
Cc1ncsc1-c1ccc(CNC(=O)[C@@H]2C[C@@H](O)CN2C(=O)[C@@H](NC(=O)CCCCCCCCCC(=O)N2CCN(Cc3cccc(N4C5CCC4CN(c4cc(-c6ccccc6O)nnc4N)C5)c3)CC2)C(C)(C)C)cc1 [Example 7, (2S,4R)-1-[(2S)-2-[[11-[4-[[3-[3-[3-amino-6-(2-hydroxyphenyl)pyridazin-4-yl]-3,8-diazabicyclo[3.2.1]octan-8-yl]phenyl]methyl]piperazin-1-yl]-11-oxo-undecanoyl]amino]-3,3-dimethyl-butanoyl]-4-hydroxy-N-[[4-(4-methylthiazol-5-yl)phenyl]methyl]pyrrolidine-2-carboxamide]	39%	0.357 µM	–	–
Cc1ncsc1-c1ccc(CNC(=O)[C@@H]2C[C@@H](O)CN2C(=O)[C@H](NC(=O)CCCCCCC(=O)N2CCN(CCOc3cccc(N4C5CCC4CN(c4cc(-c6ccccc6O)nnc4N)C5)c3)CC2)C(C)(C)C)cc1 [Example 8, (2S,4R)-1-[(2R)-2-[[8-[4-[2-[3-[3-[3-amino-6-(2-hydroxyphenyl)pyridazin-4-yl]-3,8-diazabicyclo[3.2.1]octan-8-yl]phenoxy]ethyl]piperazin-1-yl]-8-oxo-octanoyl]amino]-3,3-dimethyl-butanoyl]-4-hydroxy-N-[[4-(4-methylthiazol-5-yl)phenyl]methyl]pyrrolidine-2-carboxamide]	48%	0.61 µM	–	–
Cc1ncsc1-c1ccc(CNC(=O)[C@@H]2C[C@@H](O)CN2C(=O)[C@H](NC(=O)CCCCCC(=O)N2CCN(CCOc3cccc(N4C5CCC4CN(c4cc(-c6ccccc6O)nnc4N)C5)c3)CC2)C(C)(C)C)cc1 [Example 9, (2S,4R)-1-[(2R)-2-[[7-[4-[2-[3-[3-[3-amino-6-(2-hydroxyphenyl)pyridazin-4-yl]-3,8-diazabicyclo[3.2.1]octan-8-yl]phenoxy]ethyl]piperazin-1-yl]-7-oxo-heptanoyl]amino]-3,3-dimethyl-butanoyl]-4-hydroxy-N-[[4-(4-methylthiazol-5-yl)phenyl]methyl]pyrrolidine-2-carboxamide]	58%	0.733 µM	–	–
Cc1ncsc1-c1ccc(CNC(=O)[C@@H]2C[C@@H](O)CN2C(=O)[C@@H](NC(=O)CCCCCCCCC(=O)N2CCN(CCOc3cccc(N4C5CCC4CN(c4cc(-c6ccccc6O)nnc4N)C5)c3)CC2)C(C)(C)C)cc1 [Example 10, (2S,4R)-1-[(2S)-2-[[10-[4-[2-[3-[3-[3-amino-6-(2-hydroxyphenyl)pyridazin-4-yl]-3,8-diazabicyclo[3.2.1]octan-8-yl]phenoxy]ethyl]piperazin-1-yl]-10-oxo-decanoyl]amino]-3,3-dimethyl-butanoyl]-4-hydroxy-N-[[4-(4-methylthiazol-5-yl)phenyl]methyl]pyrrolidine-2-carboxamide]	19%	0.286 µM	–	–
Cc1ncsc1-c1ccc(CNC(=O)[C@@H]2C[C@@H](O)CN2C(=O)[C@@H](NC(=O)CCCCCCCCCC(=O)N2CCN(CCOc3cccc(N4C5CCC4CN(c4cc(-c6ccccc6O)nnc4N)C5)c3)CC2)C(C)(C)C)cc1 [Example 11, (2S,4R)-1-[(2S)-2-[[11-[4-[2-[3-[3-[3-amino-6-(2-hydroxyphenyl)pyridazin-4-yl]-3,8-diazabicyclo[3.2.1]octan-8-yl]phenoxy]ethyl]piperazin-1-yl]-11-oxo-undecanoyl]amino]-3,3-dimethyl-butanoyl]-4-hydroxy-N-[[4-(4-methylthiazol-5-yl)phenyl]methyl]pyrrolidine-2-carboxamide]	20%	0.104 µM	–	–
